According to patent publication US6656911B2, “Serine protease inhibitors” (Cortech, Inc., priority 1994, dated 2003):
pKi: −log10 of the molar value.

The compounds below were run against T1, elastase derived from human sputum (HSE) (Homo sapiens, UniProt P08246) (assay: In vitro inhibition of elastase (ONO-PO series)). Settings: substrate N-methoxysuccinyl-Ala-Ala-Pro-Val-p-nitroaniline, 37° C., pH 8.0, IC50 converted to Ki by Dixson plot.
T1 construct: prepared from commercially available HSE (875 U/mg protein, SE-563, Elastin Product Co., Inc., Missouri, USA); purchased Elastin Product Co., Inc., Missouri, USA SE-563; host or cells: human sputum (natural enzyme)
T1 sequence (P08246 30-247 limits assumed): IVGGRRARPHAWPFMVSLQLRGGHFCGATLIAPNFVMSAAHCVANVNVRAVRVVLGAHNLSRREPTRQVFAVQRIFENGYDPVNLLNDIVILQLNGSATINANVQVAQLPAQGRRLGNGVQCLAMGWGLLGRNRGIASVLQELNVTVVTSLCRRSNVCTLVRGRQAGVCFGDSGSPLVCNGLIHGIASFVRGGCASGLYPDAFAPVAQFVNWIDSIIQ
Assay type: biochemical

In order of falling pKi:
1. CC(C)[C@H](NC(=O)Cn1c(-c2ccc(F)cc2)ncc(N)c1=O)C(=O)c1nnc(Cc2ccccc2)o1 [ONO-PO-703, 2-[5-Amino-6-oxo-2-(4-fluorophenyl)-1,6-dihydro-1-pyrimidinyl]-N-[1-(2-[5-benzyl-1,3,4-oxadiazolyl]carbonyl)-2-(S)-methylpropyl]acetamide]  8.65
2. CC(C)[C@H](NC(=O)Cn1c(-c2ccccc2)ncc(N)c1=O)C(=O)c1nnc(C(C)(C)c2ccccc2)o1 [ONO-PO-711, 2-[5-Amino-6-oxo-2-phenyl-1,6-dihydro-1-pyrimidinyl]-N-[1-(2-[5-(α,α-dimethylbenzyl)-1,3,4-oxadiazolyl]carbonyl)-2-(S)-methylpropyl]acetamide]  8.59
3. CC(C)[C@H](NC(=O)Cn1c(-c2ccc(F)cc2)ncc(N)c1=O)C(=O)c1nnc(C(C)(C)c2ccc(O)c(O)c2)o1 [ONO-PO-701, 2-[5-Amino-6-oxo-2-(4-fluorophenyl)-1,6-dihydro-1-pyrimidinyl]-N-[1-(2-[5-(α,α-dimethyl-3,4-dihydroxybenzyl)-1,3,4-oxadiazolyl]carbonyl)-2-(S)-methylpropyl]acetamide]  8.53
4. CC(C)[C@H](NC(=O)Cn1c(-c2ccc(F)cc2)nccc1=O)C(=O)c1nnc(C(C)(C)c2ccccc2)o1 [ONO-PO-722, 2-[6-Oxo-2-(4-fluorophenyl)-1,6-dihydro-1-pyrimidinyl]-N-[1-(2-[5-(α,α-dimethylbenzyl)-1,3,4-oxadiazolyl]carbonyl)-2-(S)-methylpropyl]acetamide]  8.47
5. CC(C)[C@H](NC(=O)Cn1c(-c2ccccc2)nccc1=O)C(=O)c1nnc(C(C)(C)c2ccccc2)o1 [ONO-PO-731, 2-[6-Oxo-2-phenyl-1,6-dihydro-1-pyrimidinyl]-N-[1-(2-[5-α,α-dimethylbenzyl-1,3,4-oxadiazolyl]carbonyl)-2-(S)-methylpropyl]acetamide]  8.40
6. CCCCc1nnc(C(=O)[C@@H](NC(=O)Cn2c(-c3ccc(F)cc3)ncc(N)c2=O)C(C)C)o1 [ONO-PO-706, 2-[5-Amino-6-oxo-2-(4-fluorophenyl)-1,6-dihydro-1-pyrimidinyl]-N-[1-(2-[5-butyl-1,3,4-oxadiazolyl]carbonyl)-2-(S)-methylpropyl]acetamide]  8.17
7. CC(C)[C@H](NC(=O)Cn1c(-c2ccccc2)ncc(N)c1=O)C(=O)c1nnc(C2(C)CC2)o1 [ONO-PO-728, 2-[5-Amino-6-oxo-2-phenyl-1,6-dihydro-1-pyrimidinyl]-N-[1-(2-[5-(1-methylcyclopropyl)-1,3,4-oxadiazolyl]carbonyl)-2-(S)-methylpropyl]acetamide]  8.06
8. CC(C)[C@H](NC(=O)[C@@H]1CCCN1C(=O)[C@@H](NS(C)(=O)=O)C(C)C)C(=O)c1nnc(C(C)(C)C)o1 [ONO-PO-713]  7.92
9. Cc1nnc(C(=O)[C@@H](NC(=O)Cn2c(-c3ccc(F)cc3)ncc(N)c2=O)C(C)C)o1 [ONO-PO-704, 2-[5-Amino-6-oxo-2-(4-fluorophenyl)-1,6-dihydro-1-pyrimidinyl]-N-[1-(2-[5-methyl-1,3,4-oxadiazolyl]carbonyl)-2-(S)-methylpropyl]acetamide]  7.85
10. CC(C)[C@H](NC(=O)CN1C(=O)N[C@H](Cc2c[nH]c3ccccc23)C1=O)C(=O)c1nnc(C(C)(C)c2ccccc2)o1 [ONO-PO-724, 4-(R)-(3-Indolemethylene)-2,5-imidazolidinedione-N-[1-(2-[5-(α,α-dimethylbenzyl)-1,3,4-oxadiazolyl]carbonyl)-2-(S)-methylpropyl]acetamide]  7.84
11. CC(C)[C@H](NC(=O)CN1C(=O)N[C@H](C(C)C)C1=O)C(=O)c1nnc(C(C)(C)c2ccccc2)o1 [ONO-PO-720, 4-(R)-Isopropyl-2,5-imidazolidinedione-N-[1-(2-[5-(α,α-dimethylbenzyl)-1,3,4-oxadiazolyl]carbonyl)-2-(S)-methylpropyl]acetamide]  7.59
12. CC(C)C[C@@H]1NC(=O)N(CC(=O)N[C@H](C(=O)c2nnc(C(C)(C)c3ccccc3)o2)C(C)C)C1=O [ONO-PO-709, 4-(S)-(2-Isobutyl)-2,5-imidazolidinedione-N-[1-(2-[5-(α,α-dimethylbenzyl)-1,3,4-oxadiazolyl]carbonyl)-2-(S)-methylpropyl]acetamide]  7.59
13. CC(C)[C@H](NC(=O)Cn1c(-c2ccccc2)nccc1=O)C(=O)c1nnc(C2(C)CC2)o1 [ONO-PO-735, 2-[6-Oxo-2-phenyl-1,6-dihydro-1-pyrimidinyl]-N-[1-(2-[5-(1-methylcyclopropyl)-1,3,4-oxadiazolyl]carbonyl)-2-(S)-methylpropyl]acetamide]  7.58
14. CC(C)C(NC(=O)Cn1c(-c2ccccc2)nccc1=O)C(=O)c1nnc(C(C)(C)C)o1 (racemic) [ONO-PO-737, 2-[6-Oxo-2-phenyl)-1,6-dihydro-1-pyrimidinyl]-N-[1-(2-[5-tert-butyl-1,3,4-oxadiazolyl]carbonyl)-2-(R,S)-methylpropyl]acetamide]  7.44
15. CC(C)[C@H](NC(=O)CN1C(=O)CN=C(c2ccc(Cl)cc2)c2ccccc21)C(=O)c1nnc(C(C)(C)C)o1 [ONO-PO-717, 2-Oxo-5-(4-chlorophenyl)-1,4-benzodiazepine-N-[1-(2-[5-tert-butyl-1,3,4-oxadiazolyl]carbonyl)-2-(S)-methylpropyl]acetamide]  7.24
16. CC(C)[C@H](NC(=O)CN1C(=O)N[C@H](Cc2c[nH]c3ccccc23)C1=O)C(=O)c1nnc(C(C)(C)C)o1 [ONO-PO-723, 4-(R)-(3-Indolemethylene)-2,5-imidazolidinedione-N-[1-(2-[5-tert-butyl-1,3,4-oxadiazolyl]carbonyl)-2-(S)-methylpropyl]acetamide]  6.79
17. CC(C)[C@H](NC(=O)Cn1c(-c2ccccc2)cccc1=O)C(=O)c1nnc(C(C)(C)c2ccccc2)o1 [ONO-PO-726, 2-[6-Oxo-2-phenyl-1,6-dihydro-1-pyridinyl]-N-[1-(2-[5-(α,α-dimethylbenzyl)-1,3,4-oxadiazolyl]carbonyl)-2-(S)-methylpropyl]acetamide]  6.23
18. CC(C)C[C@@H]1NC(=O)N(CC(=O)N[C@H](C(=O)c2nnc(C(C)(C)C)o2)C(C)C)C1=O [ONO-PO-708, 4-(S)-(2-Isobutyl)-2,5-imidazolidinedione-N-[1-(2-[5-tert-butyl-1,3,4-oxadiazolyl]carbonyl)-2-(S)-methylpropyl]acetamide]  6.14
19. CC(C)[C@H](NC(=O)CN1C(=O)N[C@H](C(C)C)C1=O)C(=O)c1nnc(C(C)(C)C)o1 [ONO-PO-719, 4-(R)-Isopropyl-2,5-imidazolidinedione-N-[1-(2-[5-tert-butyl-1,3,4-oxadiazolyl]carbonyl)-2-(S)-methylpropyl]acetamide]  6.08
20. CC(C)[C@H](NC(=O)Cn1c(-c2ccccc2)cccc1=O)C(=O)c1nnc(C(C)(C)C)o1 [ONO-PO-725, 2-[6-Oxo-2-phenyl-1,6-dihydro-1-pyridinyl]-N-[1-(2-[5-tert-butyl-1,3,4-oxadiazolyl]carbonyl)-2-(S)-methylpropyl]acetamide]  5.37
